Assay results from ChEMBL document CHEMBL1909046, “DrugMatrix in vitro pharmacology data”.

How the values were obtained:
[1] = biological target: T1, Nitric oxide synthase, inducible (Mus musculus, UniProt P29477); design: species or system Escherichia coli;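 further: inhibition of iNOS enzyme activity measured with L-arginine as substrate; in other assays of this panel Not Active means under 50% inhibition at 10 µM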
T1 sequence (P29477 whole entry): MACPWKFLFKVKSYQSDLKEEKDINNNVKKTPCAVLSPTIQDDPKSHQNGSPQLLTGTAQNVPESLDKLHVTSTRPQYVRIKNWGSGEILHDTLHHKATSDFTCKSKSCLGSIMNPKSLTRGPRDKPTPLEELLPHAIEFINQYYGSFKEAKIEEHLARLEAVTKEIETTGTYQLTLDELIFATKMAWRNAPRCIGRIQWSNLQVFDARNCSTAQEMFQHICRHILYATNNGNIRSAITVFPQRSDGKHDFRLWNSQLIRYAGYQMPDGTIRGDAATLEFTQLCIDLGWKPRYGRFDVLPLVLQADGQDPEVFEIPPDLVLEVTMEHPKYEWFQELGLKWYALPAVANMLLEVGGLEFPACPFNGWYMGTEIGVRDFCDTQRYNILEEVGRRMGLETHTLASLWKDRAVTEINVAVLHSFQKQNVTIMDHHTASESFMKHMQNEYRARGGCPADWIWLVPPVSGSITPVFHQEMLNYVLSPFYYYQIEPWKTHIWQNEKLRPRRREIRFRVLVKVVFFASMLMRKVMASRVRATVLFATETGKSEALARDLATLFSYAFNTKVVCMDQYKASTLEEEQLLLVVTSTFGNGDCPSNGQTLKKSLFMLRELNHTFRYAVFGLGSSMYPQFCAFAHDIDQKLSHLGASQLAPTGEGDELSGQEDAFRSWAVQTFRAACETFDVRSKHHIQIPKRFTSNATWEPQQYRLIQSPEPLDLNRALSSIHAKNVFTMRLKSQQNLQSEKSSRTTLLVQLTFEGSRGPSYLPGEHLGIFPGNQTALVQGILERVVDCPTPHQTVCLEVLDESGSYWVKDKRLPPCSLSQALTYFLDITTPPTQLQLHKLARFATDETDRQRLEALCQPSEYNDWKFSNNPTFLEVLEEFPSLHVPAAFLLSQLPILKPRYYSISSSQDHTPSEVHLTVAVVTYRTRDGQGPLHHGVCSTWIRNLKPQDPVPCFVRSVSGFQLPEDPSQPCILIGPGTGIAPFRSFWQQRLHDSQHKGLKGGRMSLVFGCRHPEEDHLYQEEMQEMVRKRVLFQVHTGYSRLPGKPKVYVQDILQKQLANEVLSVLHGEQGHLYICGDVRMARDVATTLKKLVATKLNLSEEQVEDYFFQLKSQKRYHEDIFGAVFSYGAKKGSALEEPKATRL

[2] = biological target: T2, Polyunsaturated fatty acid lipoxygenase ALOX15 (Oryctolagus cuniculus, UniProt P12530); assay: biochemical; assay type: tissue-based, Reticulocytes; conditions: reticulocytes;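 further: inhibition of 15-lipoxygenase enzyme activity measured with linoleic acid as the substrate; in other assays of this panel Not Active means under 50% inhibition at 10 µM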
T2 sequence (P12530 whole entry): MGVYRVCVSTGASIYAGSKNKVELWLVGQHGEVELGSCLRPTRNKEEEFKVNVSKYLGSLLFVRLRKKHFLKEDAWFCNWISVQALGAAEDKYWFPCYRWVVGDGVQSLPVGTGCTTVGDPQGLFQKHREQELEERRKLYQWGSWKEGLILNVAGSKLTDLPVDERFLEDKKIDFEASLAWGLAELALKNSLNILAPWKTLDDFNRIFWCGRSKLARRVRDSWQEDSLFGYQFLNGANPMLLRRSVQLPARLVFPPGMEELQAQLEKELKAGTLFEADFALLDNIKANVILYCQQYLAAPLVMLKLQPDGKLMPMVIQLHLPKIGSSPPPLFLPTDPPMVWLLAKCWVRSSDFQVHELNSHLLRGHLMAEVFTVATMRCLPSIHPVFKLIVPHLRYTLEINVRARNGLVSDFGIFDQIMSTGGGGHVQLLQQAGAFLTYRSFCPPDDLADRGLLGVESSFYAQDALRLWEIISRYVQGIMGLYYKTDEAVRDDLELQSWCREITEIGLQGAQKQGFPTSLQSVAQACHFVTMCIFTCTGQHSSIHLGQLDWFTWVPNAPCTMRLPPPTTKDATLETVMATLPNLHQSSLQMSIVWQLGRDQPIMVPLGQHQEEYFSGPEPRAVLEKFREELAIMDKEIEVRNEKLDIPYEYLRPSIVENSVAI

[3] = DRUGMATRIX: Tumor Necrosis Factor (TNF), Non-Selective radioligand binding (ligand: [125I] TNF-alpha); assay type: cell membranes, Membrane; conditions: u-937; Not Active = under 50% inhibition at 10 µM
[4] = DRUGMATRIX: Purinergic P2X radioligand binding (ligand: [3H] alpha, beta-Methylene-ATP); assay type: cell membranes, Oryctolagus cuniculus, New Zealand albino, Urinary bladder, Membrane; conditions: Not Active = under 50% inhibition at 10 µM
Cytochrome P450 1A2 = biological target: T3, Cytochrome P450 1A2 (Homo sapiens, UniProt P05177); conditions: bti-tn-5b1-4; further: in other assays of this panel Not Active means under 50% inhibition at 10 µM
T3 sequence (P05177 whole entry): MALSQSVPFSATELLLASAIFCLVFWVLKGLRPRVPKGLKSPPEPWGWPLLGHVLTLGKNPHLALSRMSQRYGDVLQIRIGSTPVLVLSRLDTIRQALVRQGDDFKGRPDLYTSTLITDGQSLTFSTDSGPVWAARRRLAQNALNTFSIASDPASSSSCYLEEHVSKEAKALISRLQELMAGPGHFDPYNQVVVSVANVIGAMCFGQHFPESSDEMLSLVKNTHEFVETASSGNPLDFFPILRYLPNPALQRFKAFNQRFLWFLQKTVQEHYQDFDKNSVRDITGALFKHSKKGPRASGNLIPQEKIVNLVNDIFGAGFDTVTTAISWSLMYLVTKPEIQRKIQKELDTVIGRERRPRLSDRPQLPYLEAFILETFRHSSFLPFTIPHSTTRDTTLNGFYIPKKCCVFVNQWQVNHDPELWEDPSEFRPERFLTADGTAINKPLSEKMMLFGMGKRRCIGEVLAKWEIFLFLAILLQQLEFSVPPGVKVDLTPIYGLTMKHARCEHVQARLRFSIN

[5] = biological target: Prostaglandin G/H synthase 1 (Homo sapiens, UniProt P23219); assay: biochemical; assay type: tissue-based, Platelet;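 further: inhibition of COX-1 enzyme activity, with arachidonic acid supplied as substrate; in other assays of this panel Not Active means under 50% inhibition at 10 µM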
Sequence of Prostaglandin G/H synthase 1 (P23219 whole entry): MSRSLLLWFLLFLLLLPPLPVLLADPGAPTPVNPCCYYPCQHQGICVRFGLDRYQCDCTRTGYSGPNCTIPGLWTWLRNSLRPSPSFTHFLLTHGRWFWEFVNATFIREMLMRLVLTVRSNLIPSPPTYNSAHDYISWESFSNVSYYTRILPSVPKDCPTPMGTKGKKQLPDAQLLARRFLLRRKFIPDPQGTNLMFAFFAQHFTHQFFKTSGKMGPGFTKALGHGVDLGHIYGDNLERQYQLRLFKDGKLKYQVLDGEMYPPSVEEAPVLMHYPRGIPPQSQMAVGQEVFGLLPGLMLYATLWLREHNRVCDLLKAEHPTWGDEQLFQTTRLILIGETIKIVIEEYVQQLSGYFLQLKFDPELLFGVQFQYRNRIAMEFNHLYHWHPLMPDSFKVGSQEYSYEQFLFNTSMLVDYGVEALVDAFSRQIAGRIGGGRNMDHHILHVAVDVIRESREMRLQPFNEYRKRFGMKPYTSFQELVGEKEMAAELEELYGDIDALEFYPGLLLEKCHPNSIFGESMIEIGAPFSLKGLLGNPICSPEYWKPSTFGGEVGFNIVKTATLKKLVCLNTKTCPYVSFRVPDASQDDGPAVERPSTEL

B2 bradykinin receptor = biological target: T4, B2 bradykinin receptor (Homo sapiens, UniProt P30411); assay type: cell membranes, Membrane; conditions: chem-1; further: in other assays of this panel Not Active means under 50% inhibition at 10 µM
T4 sequence (P30411 whole entry): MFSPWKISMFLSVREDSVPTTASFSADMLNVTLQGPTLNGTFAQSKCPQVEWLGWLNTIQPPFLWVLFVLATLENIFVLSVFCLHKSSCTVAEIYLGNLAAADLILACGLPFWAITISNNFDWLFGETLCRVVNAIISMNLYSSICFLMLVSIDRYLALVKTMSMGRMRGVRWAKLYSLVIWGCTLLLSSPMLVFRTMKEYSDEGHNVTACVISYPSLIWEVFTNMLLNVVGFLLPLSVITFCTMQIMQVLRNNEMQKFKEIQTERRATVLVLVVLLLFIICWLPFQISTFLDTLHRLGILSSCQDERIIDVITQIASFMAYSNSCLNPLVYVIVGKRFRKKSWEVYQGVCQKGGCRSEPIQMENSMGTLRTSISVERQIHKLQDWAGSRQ

SMILES	IC50 [1]	Ki [2]	IC50 [3]	Ki [3]	IC50 [4]	Ki [4]	IC50 (Cytochrome P450 1A2)	Ki (Cytochrome P450 1A2)	IC50 ([5]; platelet)	IC50 (B2 bradykinin receptor)	IC50 [2]	IC50 ([5]; read-out: IC50) [nM]
CCc1oc2ccccc2c1C(=O)c1cc(Br)c(O)c(Br)c1 [BENZBROMARONE]	Not Active	Not Active	Not Active	Not Active	Not Active	Not Active	Not Active	Not Active	Not Active	Not Active	–	–
CC[C@]1(O)CC[C@H]2[C@@H]3CCC4=CCCC[C@@H]4[C@H]3CC[C@@]21C	Not Active	–	Not Active	Not Active	Not Active	Not Active	Not Active	Not Active	Not Active	Not Active	Not Active	–
CC(C)(Oc1ccc(C2CC2(Cl)Cl)cc1)C(=O)O (stereo not given) [CIPROFIBRATE]	Not Active	–	Not Active	Not Active	Not Active	Not Active	Not Active	Not Active	Not Active	Not Active	Not Active	–
CO[C@H]1[C@@H](O)[C@H](N)[C@@H](O[C@H]2O[C@H]([C@H](C)N)CC[C@H]2N)[C@H](O)[C@@H]1N(C)C(=O)CN [ASTROMICIN]	Not Active	–	Not Active	Not Active	Not Active	Not Active	Not Active	Not Active	Not Active	Not Active	Not Active	–
Clc1cc2c(cc1Cl)Oc1cc(Cl)c(Cl)cc1O2 [2,3,7,8-TETRACHLORODIBENZO-P-DIOXIN]	Not Active	–	Not Active	Not Active	Not Active	Not Active	Not Active	Not Active	Not Active	Not Active	Not Active	–
CNC(=C[N+](=O)[O-])NCCSCc1csc(CN(C)C)n1 [NIZATIDINE]	Not Active	–	Not Active	Not Active	Not Active	Not Active	Not Active	Not Active	Not Active	Not Active	Not Active	–
N=C(N)N/N=C/c1c(Cl)cccc1Cl [GUANABENZ]	Not Active	–	Not Active	Not Active	Not Active	Not Active	Not Active	Not Active	Not Active	Not Active	Not Active	–
CC(C)C[C@H]1C(=O)N2CCC[C@H]2[C@]2(O)O[C@](NC(=O)[C@@H]3C=C4c5cccc6[nH]c(Br)c(c56)C[C@H]4N(C)C3)(C(C)C)C(=O)N12 [BROMOCRIPTINE]	Not Active	–	Not Active	Not Active	Not Active	Not Active	Not Active	Not Active	Not Active	Not Active	Not Active	–
CC(C(=O)O)c1ccc(CC2CCCC2=O)cc1 (stereo not given) [LOXOPROFEN]	Not Active	–	Not Active	Not Active	Not Active	Not Active	Not Active	Not Active	Not Active	Not Active	Not Active	–
CCCCCC[C@H]1C(=O)O[C@H](C)[C@H](NC(=O)c2cccc(NC=O)c2O)C(=O)O[C@@H](C)[C@@H]1OC(=O)CC(C)C [ANTIMYCIN A]	Not Active	–	Not Active	Not Active	Not Active	Not Active	Not Active	Not Active	Not Active	Not Active	Not Active	–
COc1ccc(Cc2nccc3cc(OC)c(OC)cc23)cc1OC [PAPAVERINE]	Not Active	–	Not Active	Not Active	Not Active	Not Active	Not Active	Not Active	Not Active	Not Active	Not Active	–
O=c1cc(-c2ccccc2)oc2ccc3ccccc3c12 [BETA-NAPHTHOFLAVONE]	Not Active	–	Not Active	Not Active	Not Active	Not Active	Not Active	Not Active	Not Active	Not Active	Not Active	–
CC(=O)O[C@]1(C(C)=O)CC[C@H]2[C@@H]3C=C(Cl)C4=CC(=O)[C@@H]5C[C@@H]5[C@]4(C)[C@H]3CC[C@@]21C [CYPROTERONE ACETATE]	Not Active	–	Not Active	Not Active	Not Active	Not Active	Not Active	Not Active	Not Active	Not Active	Not Active	–
CCN[C@@H](C)Cc1cccc(C(F)(F)F)c1 [DEXFENFLURAMINE]	Not Active	–	Not Active	Not Active	Not Active	Not Active	Not Active	Not Active	Not Active	Not Active	Not Active	–
Nn1nnc2ccccc21	Not Active	–	Not Active	Not Active	Not Active	Not Active	Not Active	Not Active	Not Active	Not Active	Not Active	–
O=C(O)Cc1ccc(-c2ccccc2)cc1 [FELBINAC]	Not Active	–	Not Active	Not Active	Not Active	Not Active	Not Active	Not Active	–	Not Active	Not Active	894
